ChEMBL document CHEMBL5532646, “Discovery of 4-(N-dithiobenzyl piperazine)-1,8-naphthalimide as a potent multi-target antitumor agent with good efficacy, limited toxicity, and low resistance” (Eur J Med Chem, 2024)

Key:
Assay type in all cases: functional, cell-based
HepG2 = assay: Antiproliferative activity against human HepG2 cells incubated for 48 hrs by MTT assay; conditions: HepG2, 48 h
MGC-803 = assay: Antiproliferative activity against human MGC-803 cells incubated for 48 hrs by MTT assay; conditions: MGC-803, 48 h
T-24 = assay: Antiproliferative activity against human T24 cells incubated for 48 hrs by MTT assay; conditions: T-24, 48 h
SK-OV-3 = assay: Antiproliferative activity against human SK-OV-3 cells incubated for 48 hrs by MTT assay; conditions: SK-OV-3, 48 h

| Structure (SMILES) | IC50 (HepG2) | IC50 (MGC-803) | IC50 (T-24) | IC50 (SK-OV-3) |
| --- | --- | --- | --- | --- |
| CCCCN1C(=O)c2cccc3c(N4CCN(C(=S)SCc5ccccc5)CC4)ccc(c23)C1=O | 29.7 µM | 26.1 µM | 22.6 µM | 25.3 µM |
| O=C(c1ccccc1)N1CCN(c2ccc3c4c(cccc24)C(=O)N(CCc2ccc(O)c(O)c2)C3=O)CC1 | 28.5 µM | 25.8 µM | 26.5 µM | 21.4 µM |
| CC(C)(C)OC(=O)N1CCN(c2ccc3c4c(cccc24)C(=O)N(Nc2ccccn2)C3=O)CC1 | 15.3 µM | 16.5 µM | 12.4 µM | 17.8 µM |
| CC(C)(C)OC(=O)N1CCN(c2ccc3c4c(cccc24)C(=O)N(CCc2ccc(O)c(O)c2)C3=O)CC1 | 30.5 µM | 32.4 µM | 25.1 µM | 26.4 µM |
| CC(C)(C)OC(=O)N1CCN(c2ccc3c4c(cccc24)C(=O)N(CCO)C3=O)CC1 | 7.62 µM | 8.81 µM | 7.41 µM | 9.13 µM |
| CC(C)(C)OC(=O)N1CCN(c2ccc3c4c(cccc24)C(=O)N(Nc2nc4ccccc4s2)C3=O)CC1 | 22.4 µM | 19.5 µM | 20.3 µM | 23.5 µM |
| O=C1c2cccc3c(N4CCN(C(=S)SCc5ccccc5)CC4)ccc(c23)C(=O)N1CCc1ccc(O)c(O)c1 | 31.1 µM | 34.7 µM | 31.2 µM | 35 µM |
| O=c1[nH]cc(F)c(=O)[nH]1 [FLUOROURACIL] | 25.5 µM | – | 40.1 µM | – |
| O=C(c1ccccc1)N1CCN(c2ccc3c4c(cccc24)C(=O)N(CCO)C3=O)CC1 | 17.4 µM | 19.5 µM | 20.4 µM | 16.4 µM |
| CC(C)(C)OC(=O)N1CCN(c2ccc3c4c(cccc24)C(=O)N(Cc2ccccc2)C3=O)CC1 | > 50 µM | > 50 µM | > 50 µM | > 50 µM |
| O=C1c2cccc3c(N4CCN(C(=S)SCc5ccccc5)CC4)ccc(c23)C(=O)N1Cc1ccccc1 | 40.6 µM | 38.9 µM | 31.7 µM | 30 µM |
| O=C1c2cccc3c(N4CCN(C(=S)SCc5ccccc5)CC4)ccc(c23)C(=O)N1Cc1ccc(Cl)cc1 | 25.3 µM | 20.5 µM | 21.1 µM | 28.8 µM |
| O=C1c2cccc3c(N4CCN(C(=S)SCc5ccccc5)CC4)ccc(c23)C(=O)N1Nc1ccccc1 | 28.4 µM | 19.4 µM | 22.4 µM | 30.8 µM |
| O=C(c1ccccc1)N1CCN(c2ccc3c4c(cccc24)C(=O)N(Cc2ccccc2)C3=O)CC1 | 26.8 µM | 23.5 µM | 17.7 µM | 22.4 µM |
| CNCCN1C(=O)c2cccc3c(N4CCN(C(=O)OC(C)(C)C)CC4)ccc(c23)C1=O | 7.48 µM | 8.69 µM | 3.88 µM | 5.42 µM |
| O=C(c1ccccc1)N1CCN(c2ccc3c4c(cccc24)C(=O)N(Nc2ccccn2)C3=O)CC1 | 38.5 µM | 35.3 µM | 32.4 µM | 29.5 µM |

| Structure (SMILES) | IC50 (HepG2) | IC50 (MGC-803) | IC50 (T-24) | IC50 (SK-OV-3) |
| --- | --- | --- | --- | --- |
| O=C1c2cccc3c(N4CCN(C(=S)SCc5ccccc5)CC4)ccc(c23)C(=O)N1CCO | 16.8 µM | 18.5 µM | 16.4 µM | 14.3 µM |
| CN(C)CCN1C(=O)c2cccc3c(N4CCN(C(=O)OC(C)(C)C)CC4)ccc(c23)C1=O | 11.4 µM | 10.9 µM | 6.91 µM | 10.2 µM |
| O=C1c2cccc3c(N4CCN(C(=S)SCc5ccccc5)CC4)ccc(c23)C(=O)N1Nc1ccccn1 | > 50 µM | > 50 µM | > 50 µM | > 50 µM |
| O=C(c1ccccc1)N1CCN(c2ccc3c4c(cccc24)C(=O)N(Nc2ccccc2)C3=O)CC1 | 21.5 µM | 26.4 µM | 19.3 µM | 23.3 µM |
| O=C(c1ccccc1)N1CCN(c2ccc3c4c(cccc24)C(=O)N(Cc2ccc(Cl)cc2)C3=O)CC1 | 39.6 µM | 43.6 µM | 29.2 µM | 31 µM |
| O=C1c2cccc3c(N4CCN(C(=S)SCc5ccccc5)CC4)ccc(c23)C(=O)N1CCc1ccc2c(c1)OCO2 | 11.8 µM | 12.1 µM | 14.6 µM | 10.5 µM |
| O=C(c1ccccc1)N1CCN(c2ccc3c4c(cccc24)C(=O)N(CCc2ccc4c(c2)OCO4)C3=O)CC1 | 31.5 µM | 21.6 µM | 24.4 µM | 35.2 µM |
| CC(C)(C)OC(=O)N1CCN(c2ccc3c4c(cccc24)C(=O)N(CCc2ccc4c(c2)OCO4)C3=O)CC1 | 4.31 µM | 5.78 µM | 3.69 µM | 4.16 µM |
| O=C(c1ccccc1)N1CCN(c2ccc3c4c(cccc24)C(=O)N(Nc2nc4ccccc4s2)C3=O)CC1 | 22.4 µM | 27.5 µM | 24.1 µM | 19.4 µM |
| O=C1c2cccc3c(N4CCN(C(=S)SCc5ccccc5)CC4)ccc(c23)C(=O)N1Nc1nc2ccccc2s1 | 23.7 µM | 18.5 µM | 20.4 µM | 24.6 µM |
| CNCCCN1C(=O)c2cccc3c(N4CCN(C(=O)c5ccccc5)CC4)ccc(c23)C1=O | 4.41 µM | 8.09 µM | 6.25 µM | 6.06 µM |
| CCCCN1C(=O)c2cccc3c(N4CCN(C(=O)c5ccccc5)CC4)ccc(c23)C1=O | 14.3 µM | 11.2 µM | 10.4 µM | 15.4 µM |
| CNCCCN1C(=O)c2cccc3c(N4CCN(C(=O)OC(C)(C)C)CC4)ccc(c23)C1=O | 9.75 µM | 17.4 µM | 8.45 µM | 13.1 µM |
| CCCCN1C(=O)c2cccc3c(N4CCN(C(=O)OC(C)(C)C)CC4)ccc(c23)C1=O | > 50 µM | > 50 µM | > 50 µM | > 50 µM |
| CC(C)(C)OC(=O)N1CCN(c2ccc3c4c(cccc24)C(=O)N(Cc2ccc(Cl)cc2)C3=O)CC1 | 23.2 µM | 25.3 µM | 21.3 µM | 22.6 µM |
| CC(C)(C)OC(=O)N1CCN(c2ccc3c4c(cccc24)C(=O)N(c2nc4ccccc4[nH]2)C3=O)CC1 | > 50 µM | > 50 µM | > 50 µM | > 50 µM |
